Reference: patent US20260000645A1, “USE OF EBSELEN OR ONE OF THE DERIVATIVES THEREOF TO TREAT MITOCHONDRIAL PATHOLOGIES OR DYSFUNCTIONS” (ASSOCIATION FRANCAISE CONTRE LES MYOPATHIES, priority 2022, published 2026)

Tested on: mutant Pa nuo-51^A357V
Test: Growth halo of heat sensitive complex I mutant at 33° C.
Assay type: cell-based, Podospora anserina
Details: 20 nmoles of EBS, 4-5 days
Protocol: The strain used in the following examples contains a specific mutation modeling a human mutation in the sub-unit NDUFV1 of complex I leading to a mitochondrial illness. This strain has a growth defect at a non-permissive temperature greater than 31.5° C.
nuo-51^A357V: The mutation A357V was introduced into the gene nuo-51 of the wild type strain S along with a resistance cassette of nourseothricin (NatR). In order to mimic the human illness NDUFV1A341V, the genes NDI-1 and AOX were deactivated (El-Khoury et al., (2008) Curr Genet. 53:249-58)
The heat sensitive mutant Pa nuo-51^A357V was homogeneously spread on sterile glass beads on a square Petri dish containing a solid minimal medium (M2). Small sterile filters were then placed on the agar-agar surface and 20 nmoles of EBS were added. DMSO (the vehicle of the compound) was used as a negative control. The plate was then incubated at the non-permissive temperature of 33° C. for 4-5 days then photographed.

SMILES: O=c1c2ccccc2[se]n1-c1ccccc1 [ebselen, 2-phenyl-1,2-benzisoselenazol-3(2H)-one]
- growth of the mutant (growth halo): positive effect
